Reference: US11324768B2, “Applications of triacetyl-3-hydroxyl phenyl adenosine in treating vascular inflammations or improving vascular endothelium functions” (priority 2016, dated 2022)

Key:
Ob/Ob obese mice = test: Biochemical indexes in Ob/Ob obese mice; type: in vivo; settings: 400 mg/kg
Description: After 1 week of adaptive feeding, animals were randomly divided into two groups according to body weight: model control group, and IMM-H007 group (400 mg/kg), 10 in each group, and were given normal feed and simultaneously administered intragastrically at a dose of 0.1 ml/10 g body weight, and were continuously administered and fed for 9 weeks. The changes of food intake and body weight were recorded, and routine biochemical indicators such as blood lipids and blood glucose, etc. were measured. After 9 weeks, 3 animals were taken from each group and the mesenteric arterioles were taken for measurement of vascular endothelial function in the same manner as in Example 2.
Detection Indicators (1) Routine Biochemical Indicators and (2) Vascular Endothelial Function

thoracic aorta = test: Endothelial function of thoracic aorta in ApoE−/− mice (vascular ring, Ach / SNP relaxation); type: in vivo
Description: After 1 week of adaptive feeding, the animals were randomly divided into 7 groups according to body weight: normal control group, model control group A769662 (30 mg/kg) administration group, metformin (260 mg/kg) administration group, IMM-H007 low, medium, and high administration groups (50, 100, 200 mg/kg), 8 in each group, and were given a high-fat diet (78.6% basal diet, 10% lard, 1.0% cholesterol, 10% egg yolk powder, and 0.4% bile salt), and simultaneously administered intragastrically at a dose of 0.1 ml/10 g body weight, and were continuously administered and fed for 8 weeks to establish an atherosclerosis model.
The mice were anesthetized. The thoracic aorta was quickly taken, after carefully stripping the surrounding tissue, was cut into a vascular ring with a length of about 3 mm. The vascular ring was carefully hung on a tonotransducer, given an initial tension of 0.5 g and equilibrated for 90 minutes or more. During the equilibration process, the fluid was replaced every 20 minutes, aeration was maintained and the temperature was maintained at 37° C. The vascular ring was equilibrated for about 1 hour and stimulated twice with saturated KCl (60 mM) to detect whether the blood vessel was active. After vasoconstriction was stabilized, KCl was washed away immediately. After the last replacement of the fluid, the vascular ring was equilibrated for 20 minutes, given phenylephrine 1 μM to stimulate vasoconstriction, and after vasoconstriction was stabilized, it was cumulatively administered with acetylcholine (Ach, 1×10^−10 to […]) and sodium nitroprusside (SNP, 10^−10 to 10^−4 M) to record the vasodilation curve. Vasodilation rate=[PE-induced vascular tone (g)-vascular tension after addition of ACh (g)][…][PE contraction-induced tension (g)-basal vascular tone (g)]×100%.

SMILES: CC(=O)OCC1OC(n2cnc3c(Nc4cccc(O)c4)ncnc32)C(OC(C)=O)C1OC(C)=O (stereo not drawn) [IMM-H007, 2′,3,′ 5′-triacetyl-N^6(3-hydroxyphenyl)adenosine]
- Fasting blood glucose (Ob/Ob obese mice; 4 week): 6.69 ± 0.12 mmol/L
- Fasting insulin (Ob/Ob obese mice; 4 week): 1.60 ± 0.18 ng/mL
- Free fatty acid (Ob/Ob obese mice; 4 week): 1.06 ± 0.03 mEq/l
- Ingestion (Ob/Ob obese mice; 4 week): 5.48 ± 0.05 g/day
- Low-density lipoprotein (Ob/Ob obese mice; 4 week): 1.16 ± 0.04 mmol/L
- Total cholesterol (Ob/Ob obese mice; 4 week): 3.57 ± 0.07 mmol/L
- Triglyceride (Ob/Ob obese mice; 4 week): 0.69 ± 0.03 mmol/L
- Body weight (Ob/Ob obese mice; 9 week): 51.18 ± 0.67 g
- Fasting blood glucose (Ob/Ob obese mice; 9 week): 9.98 ± 0.51 mmol/L
- Fasting insulin (Ob/Ob obese mice; 9 week): 6.07 ± 0.48 ng/mL
- Free fatty acid (Ob/Ob obese mice; 9 week): 0.44 ± 0.07 mEq/l
- Ingestion (Ob/Ob obese mice; 9 week): 5.47 ± 0.08 g/day
- Low-density lipoprotein (Ob/Ob obese mice; 9 week): 1.70 ± 0.28 mmol/L
- Total cholesterol (Ob/Ob obese mice; 9 week): 4.13 ± 0.67 mmol/L
- Triglyceride (Ob/Ob obese mice; 9 week): 0.52 ± 0.09 mmol/L
- sodium nitroprusside endothelium-independent relaxation of aortic vessel (thoracic aorta; 50 mg/kg, 1 × 10^−4 M SNP): 97.8 ± 4.9%
- acetylcholine endothelium-dependent relaxation of aortic vessel (thoracic aorta; 50 mg/kg, 1 × 10^−5 M Ach): 91.0 ± 2.3 %
- sodium nitroprusside endothelium-independent relaxation of aortic vessel (thoracic aorta; 50 mg/kg, 1 × 10^−5 M SNP): 89.4 ± 6.8%
- acetylcholine endothelium-dependent relaxation of aortic vessel (thoracic aorta; 50 mg/kg, 1 × 10^−6 M Ach): 67.5 ± 11.0 %
- sodium nitroprusside endothelium-independent relaxation of aortic vessel (thoracic aorta; 50 mg/kg, 1 × 10^−6 M SNP): 87.2 ± 10.1%
- acetylcholine endothelium-dependent relaxation of aortic vessel (thoracic aorta; 50 mg/kg, 1 × 10^−7 M Ach): 54.1 ± 18.8 %
- sodium nitroprusside endothelium-independent relaxation of aortic vessel (thoracic aorta; 50 mg/kg, 1 × 10^−7 M SNP): 68.3 ± 20.5%
- acetylcholine endothelium-dependent relaxation of aortic vessel (thoracic aorta; 50 mg/kg, 1 × 10^−8 M Ach): 39.2 ± 14.0%
- sodium nitroprusside endothelium-independent relaxation of aortic vessel (thoracic aorta; 50 mg/kg, 1 × 10^−8 M SNP): 58.4 ± 13.8%
- acetylcholine endothelium-dependent relaxation of aortic vessel (thoracic aorta; 50 mg/kg, 1 × 10^−9 M Ach): 29.3 ± 11.2%
- sodium nitroprusside endothelium-independent relaxation of aortic vessel (thoracic aorta; 50 mg/kg, 1 × 10^−9 M SNP): 43.1 ± 24.6%
- acetylcholine endothelium-dependent relaxation of aortic vessel (thoracic aorta; 50 mg/kg, 1 × 10^−10 M Ach): 11.6 ± 7.0%
- sodium nitroprusside endothelium-independent relaxation of aortic vessel (thoracic aorta; 50 mg/kg, 1 × 10^−10 M SNP): 18.0 ± 16.3%
- acetylcholine endothelium-dependent relaxation of aortic caused by high fat (thoracic aorta; 50 mg/kg, compared with the model control group): significantly improve
- sodium nitroprusside endothelium-independent relaxation of aortic vessel (thoracic aorta; 200 mg/kg, 1 × 10^−4 M SNP): 97.9 ± 10.8%
- acetylcholine endothelium-dependent relaxation of aortic vessel (thoracic aorta; 200 mg/kg, 1 × 10^−5 M Ach): 97.8 ± 8.2 %
- sodium nitroprusside endothelium-independent relaxation of aortic vessel (thoracic aorta; 200 mg/kg, 1 × 10^−5 M SNP): 95.4 ± 8.5%
- acetylcholine endothelium-dependent relaxation of aortic vessel (thoracic aorta; 200 mg/kg, 1 × 10^−6 M Ach): 87.4 ± 10.9 %
- sodium nitroprusside endothelium-independent relaxation of aortic vessel (thoracic aorta; 200 mg/kg, 1 × 10^−6 M SNP): 94.1 ± 20.6%
- acetylcholine endothelium-dependent relaxation of aortic vessel (thoracic aorta; 200 mg/kg, 1 × 10^−7 M Ach): 64.2 ± 17.7 %
- sodium nitroprusside endothelium-independent relaxation of aortic vessel (thoracic aorta; 200 mg/kg, 1 × 10^−7 M SNP): 73.6 ± 23.3%
- acetylcholine endothelium-dependent relaxation of aortic vessel (thoracic aorta; 200 mg/kg, 1 × 10^−8 M Ach): 47.6 ± 22.5%
- sodium nitroprusside endothelium-independent relaxation of aortic vessel (thoracic aorta; 200 mg/kg, 1 × 10^−8 M SNP): 62.3 ± 22.7%
- acetylcholine endothelium-dependent relaxation of aortic vessel (thoracic aorta; 200 mg/kg, 1 × 10^−9 M Ach): 31.4 ± 18.5%
- sodium nitroprusside endothelium-independent relaxation of aortic vessel (thoracic aorta; 200 mg/kg, 1 × 10^−9 M SNP): 30.5 ± 20.8%
- acetylcholine endothelium-dependent relaxation of aortic vessel (thoracic aorta; 200 mg/kg, 1 × 10^−10 M Ach): 9.4 ± 3.9%
- sodium nitroprusside endothelium-independent relaxation of aortic vessel (thoracic aorta; 200 mg/kg, 1 × 10^−10 M SNP): 12.4 ± 8.4%
